For 5 molecules, Ki, IC50 and EC50 results are on record in ChEMBL document CHEMBL1128713, “N-alkylated nitrogen-in-the-ring sugars: conformational basis of inhibition of glycosidases and HIV-1 replication” (J Med Chem, 1995).

A value given as a limit tells only on which side of the number the result lay.

In test [1] the target is T1, Alpha-mannosidase 2 (Rattus norvegicus, UniProt P28494).
T1 sequence (P28494 whole entry): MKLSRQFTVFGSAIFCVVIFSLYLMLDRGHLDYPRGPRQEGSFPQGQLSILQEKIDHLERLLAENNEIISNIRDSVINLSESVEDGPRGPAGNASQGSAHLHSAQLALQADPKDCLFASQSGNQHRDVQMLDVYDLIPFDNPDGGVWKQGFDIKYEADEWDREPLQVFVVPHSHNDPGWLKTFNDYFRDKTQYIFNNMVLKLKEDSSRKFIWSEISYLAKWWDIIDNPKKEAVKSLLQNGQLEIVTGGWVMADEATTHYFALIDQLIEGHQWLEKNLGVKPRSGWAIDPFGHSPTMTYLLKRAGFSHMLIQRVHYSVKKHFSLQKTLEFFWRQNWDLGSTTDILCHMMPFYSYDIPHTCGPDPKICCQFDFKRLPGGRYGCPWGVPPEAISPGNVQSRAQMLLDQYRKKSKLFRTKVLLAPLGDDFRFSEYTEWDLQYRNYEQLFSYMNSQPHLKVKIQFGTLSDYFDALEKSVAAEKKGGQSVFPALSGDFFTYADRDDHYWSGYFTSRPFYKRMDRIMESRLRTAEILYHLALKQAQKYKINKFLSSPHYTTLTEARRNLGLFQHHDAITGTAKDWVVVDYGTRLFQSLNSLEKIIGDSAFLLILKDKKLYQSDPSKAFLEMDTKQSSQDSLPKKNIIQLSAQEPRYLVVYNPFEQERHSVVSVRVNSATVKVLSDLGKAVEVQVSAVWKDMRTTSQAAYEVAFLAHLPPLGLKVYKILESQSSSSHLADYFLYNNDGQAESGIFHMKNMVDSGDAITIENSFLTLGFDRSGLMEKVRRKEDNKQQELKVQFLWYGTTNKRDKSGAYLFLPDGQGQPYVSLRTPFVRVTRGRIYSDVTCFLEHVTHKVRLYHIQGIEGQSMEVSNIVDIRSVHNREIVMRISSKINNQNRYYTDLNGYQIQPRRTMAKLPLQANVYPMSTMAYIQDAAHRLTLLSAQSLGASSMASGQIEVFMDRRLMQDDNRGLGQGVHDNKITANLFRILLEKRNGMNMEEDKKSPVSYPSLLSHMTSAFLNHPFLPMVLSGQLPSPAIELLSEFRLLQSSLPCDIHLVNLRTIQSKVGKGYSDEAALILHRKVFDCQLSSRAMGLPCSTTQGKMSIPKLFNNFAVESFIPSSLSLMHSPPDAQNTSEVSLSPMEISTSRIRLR
In words: Competitive Inhibitory activity against Golgi Alpha-mannosidase II.

Test [2] concerns the target T1, Alpha-mannosidase 2. In words: Inhibition of golgi Alpha-mannosidase II in rat liver. In kind it is tissue-based.
Test [3] in a line: Inhibition of lysosomal Alpha-Glucosidase II in rat liver.
The test system of another test is MOLT-4. As to the kind of experiment: Concentration giving 50% inhibition of HIV-1 induced cytopathogenicity in MOLT-4 cells. The class given is functional, cell-based, Homo sapiens. For orientation: Protection from cytopathic effect is a common read-out in antiviral testing.
The test system of a further test is MT4. In words: Concentration giving 50% inhibition of HIV-1 induced cytopathogenicity in MT-4 cells. In kind it is functional, cell-based, Homo sapiens.
The nature of test [4]: Inhibition of endoplasmic reticulum Alpha-Glucosidase II in rat liver. In kind it is tissue-based.
Test [5] can be described thus: Competitive Inhibitory activity against Endoplasmic reticulum Alpha-Glucosidase II. On the set-up: species or system Rattus norvegicus.
Test [6] can be described thus: Inhibition of Cellobiase in rat intestinal brush border membranes by D-glucose oxidase-peroxidase method. In kind it is cell membranes, Membrane.
The target in test [7] is Lactase/phlorizin hydrolase (Rattus norvegicus, UniProt Q02401). As to the kind of experiment: Inhibition of Glycosidases (lactase)in rat intestinal brush border membranes by D-glucose oxidase-peroxidase method. The class given is cell membranes, Membrane.
For the next test, the target named is T2, Trehalase (Rattus norvegicus, UniProt O70282).
T2 sequence (O70282 whole entry): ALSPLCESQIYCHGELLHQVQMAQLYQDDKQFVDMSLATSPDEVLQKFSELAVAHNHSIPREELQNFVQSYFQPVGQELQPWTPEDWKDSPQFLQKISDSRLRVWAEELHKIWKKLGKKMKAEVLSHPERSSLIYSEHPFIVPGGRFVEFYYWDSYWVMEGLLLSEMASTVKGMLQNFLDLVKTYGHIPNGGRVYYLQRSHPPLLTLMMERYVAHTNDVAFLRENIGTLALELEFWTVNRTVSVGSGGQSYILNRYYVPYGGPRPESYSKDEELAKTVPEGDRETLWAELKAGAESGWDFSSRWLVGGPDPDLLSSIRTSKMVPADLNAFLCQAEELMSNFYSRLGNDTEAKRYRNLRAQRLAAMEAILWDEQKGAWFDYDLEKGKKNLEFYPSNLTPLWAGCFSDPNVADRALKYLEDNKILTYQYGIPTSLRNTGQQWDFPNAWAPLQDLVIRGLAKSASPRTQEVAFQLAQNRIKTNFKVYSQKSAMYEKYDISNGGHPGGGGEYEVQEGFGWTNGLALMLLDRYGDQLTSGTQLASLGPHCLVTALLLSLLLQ
As to the kind of experiment: Inhibition of Glycosidases (trehalase)in rat intestinal brush border membranes by D-glucose oxidase-peroxidase method. In kind it is cell membranes, Membrane.

The target of a further test is T3, Mannosidase 2, alpha B1 (Rattus norvegicus, UniProt Q6P762).
T3 sequence (Q6P762 whole entry): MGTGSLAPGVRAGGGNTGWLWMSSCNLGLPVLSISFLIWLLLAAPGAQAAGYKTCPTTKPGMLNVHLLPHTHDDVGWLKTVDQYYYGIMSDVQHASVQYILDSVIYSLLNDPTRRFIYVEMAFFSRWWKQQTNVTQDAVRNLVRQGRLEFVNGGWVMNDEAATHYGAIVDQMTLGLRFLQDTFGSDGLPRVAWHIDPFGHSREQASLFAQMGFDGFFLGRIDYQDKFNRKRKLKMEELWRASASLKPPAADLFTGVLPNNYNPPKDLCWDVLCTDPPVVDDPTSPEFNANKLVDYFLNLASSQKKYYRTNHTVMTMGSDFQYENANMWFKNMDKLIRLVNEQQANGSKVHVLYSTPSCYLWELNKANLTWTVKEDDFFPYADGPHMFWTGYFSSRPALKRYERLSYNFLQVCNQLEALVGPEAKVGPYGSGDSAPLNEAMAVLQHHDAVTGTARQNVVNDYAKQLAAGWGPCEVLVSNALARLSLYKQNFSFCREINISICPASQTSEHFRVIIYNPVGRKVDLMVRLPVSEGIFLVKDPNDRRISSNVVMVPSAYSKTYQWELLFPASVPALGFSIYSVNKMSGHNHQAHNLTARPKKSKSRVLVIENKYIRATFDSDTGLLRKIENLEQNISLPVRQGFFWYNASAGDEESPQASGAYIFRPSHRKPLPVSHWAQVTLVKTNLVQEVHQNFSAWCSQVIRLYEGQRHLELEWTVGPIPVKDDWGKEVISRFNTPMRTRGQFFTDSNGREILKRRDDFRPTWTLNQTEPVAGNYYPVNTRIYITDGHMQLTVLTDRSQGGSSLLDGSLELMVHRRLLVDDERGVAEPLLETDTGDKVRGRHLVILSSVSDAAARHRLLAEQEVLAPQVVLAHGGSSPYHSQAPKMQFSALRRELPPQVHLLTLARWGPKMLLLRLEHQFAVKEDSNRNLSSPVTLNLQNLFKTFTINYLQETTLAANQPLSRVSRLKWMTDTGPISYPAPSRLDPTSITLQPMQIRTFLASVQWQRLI
As to the kind of experiment: Inhibition of lysosomal Alpha-mannosidase II in rat liver. The class given is tissue-based.

A further test deals with T4, Alpha-mannosidase 2C1 (Rattus norvegicus, UniProt P21139).
T4 sequence (P21139 whole entry): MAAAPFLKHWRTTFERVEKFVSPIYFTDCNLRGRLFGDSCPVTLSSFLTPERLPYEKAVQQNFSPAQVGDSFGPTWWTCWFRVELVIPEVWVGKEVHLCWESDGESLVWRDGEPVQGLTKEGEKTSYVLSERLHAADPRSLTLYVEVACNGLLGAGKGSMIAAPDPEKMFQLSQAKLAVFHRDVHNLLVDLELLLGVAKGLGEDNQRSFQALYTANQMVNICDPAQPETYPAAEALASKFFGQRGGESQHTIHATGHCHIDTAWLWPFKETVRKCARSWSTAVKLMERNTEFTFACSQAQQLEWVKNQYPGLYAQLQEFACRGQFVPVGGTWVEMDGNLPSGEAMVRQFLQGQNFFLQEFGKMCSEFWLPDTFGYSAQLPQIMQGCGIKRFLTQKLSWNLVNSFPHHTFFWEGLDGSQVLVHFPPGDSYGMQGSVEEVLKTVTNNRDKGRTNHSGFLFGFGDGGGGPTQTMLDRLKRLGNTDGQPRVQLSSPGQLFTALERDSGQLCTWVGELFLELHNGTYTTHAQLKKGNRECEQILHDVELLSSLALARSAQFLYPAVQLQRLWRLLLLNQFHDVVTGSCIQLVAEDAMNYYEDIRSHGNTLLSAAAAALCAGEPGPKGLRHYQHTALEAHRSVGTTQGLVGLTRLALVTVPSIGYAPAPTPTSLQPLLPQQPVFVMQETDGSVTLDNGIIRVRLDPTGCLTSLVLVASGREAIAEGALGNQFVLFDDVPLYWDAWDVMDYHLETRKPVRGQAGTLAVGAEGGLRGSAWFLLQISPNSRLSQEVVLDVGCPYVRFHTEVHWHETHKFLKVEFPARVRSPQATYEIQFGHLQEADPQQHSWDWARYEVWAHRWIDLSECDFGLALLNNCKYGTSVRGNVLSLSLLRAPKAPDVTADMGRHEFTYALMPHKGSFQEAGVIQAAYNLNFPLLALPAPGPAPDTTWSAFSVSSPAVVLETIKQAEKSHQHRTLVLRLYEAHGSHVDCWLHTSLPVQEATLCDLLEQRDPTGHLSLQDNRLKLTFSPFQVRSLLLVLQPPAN
In words: Inhibition of soluble Alpha-mannosidase II in rat liver. In kind it is tissue-based.

For test [8], the target named is T5, Sucrase-isomaltase, intestinal (Rattus norvegicus, UniProt P23739). As to the kind of experiment: Inhibition of Glycosidases (isomaltase)in rat intestinal brush border membranes by D-glucose oxidase-peroxidase method. In kind it is cell membranes, Membrane.
Test [9] deals with T5, Sucrase-isomaltase, intestinal. In words: Inhibition of Sucrase in rat intestinal brush border membranes by D-glucose oxidase-peroxidase method. The class given is cell membranes, Membrane.

T5 sequence (P23739 1-1013 limits assumed): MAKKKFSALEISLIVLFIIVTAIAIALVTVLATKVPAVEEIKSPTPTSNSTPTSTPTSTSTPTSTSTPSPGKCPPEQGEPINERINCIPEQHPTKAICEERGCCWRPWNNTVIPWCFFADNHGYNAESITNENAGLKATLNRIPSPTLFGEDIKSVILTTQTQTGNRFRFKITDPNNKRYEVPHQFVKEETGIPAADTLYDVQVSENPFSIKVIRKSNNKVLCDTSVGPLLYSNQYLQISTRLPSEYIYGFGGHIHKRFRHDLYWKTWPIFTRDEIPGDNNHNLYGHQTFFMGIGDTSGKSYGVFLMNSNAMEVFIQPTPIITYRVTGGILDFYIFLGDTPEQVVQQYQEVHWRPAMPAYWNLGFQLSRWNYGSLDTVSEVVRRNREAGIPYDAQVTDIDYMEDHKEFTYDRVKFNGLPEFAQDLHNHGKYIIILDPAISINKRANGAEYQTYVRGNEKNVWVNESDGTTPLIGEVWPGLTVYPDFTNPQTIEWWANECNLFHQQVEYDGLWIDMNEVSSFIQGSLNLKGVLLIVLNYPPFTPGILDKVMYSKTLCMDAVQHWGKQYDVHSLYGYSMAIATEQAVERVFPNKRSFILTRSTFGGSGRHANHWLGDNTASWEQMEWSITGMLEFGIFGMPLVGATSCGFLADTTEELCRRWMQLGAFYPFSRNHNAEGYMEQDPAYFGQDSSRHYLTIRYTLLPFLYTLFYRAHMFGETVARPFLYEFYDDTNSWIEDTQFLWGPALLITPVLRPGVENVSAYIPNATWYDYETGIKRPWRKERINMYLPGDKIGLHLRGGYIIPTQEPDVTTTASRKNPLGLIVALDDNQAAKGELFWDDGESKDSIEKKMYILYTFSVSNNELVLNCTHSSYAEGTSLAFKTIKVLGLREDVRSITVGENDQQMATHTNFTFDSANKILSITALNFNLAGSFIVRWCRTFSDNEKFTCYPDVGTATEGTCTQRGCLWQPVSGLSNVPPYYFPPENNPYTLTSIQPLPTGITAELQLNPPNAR
T5 sequence (P23739 1014-1841 limits assumed): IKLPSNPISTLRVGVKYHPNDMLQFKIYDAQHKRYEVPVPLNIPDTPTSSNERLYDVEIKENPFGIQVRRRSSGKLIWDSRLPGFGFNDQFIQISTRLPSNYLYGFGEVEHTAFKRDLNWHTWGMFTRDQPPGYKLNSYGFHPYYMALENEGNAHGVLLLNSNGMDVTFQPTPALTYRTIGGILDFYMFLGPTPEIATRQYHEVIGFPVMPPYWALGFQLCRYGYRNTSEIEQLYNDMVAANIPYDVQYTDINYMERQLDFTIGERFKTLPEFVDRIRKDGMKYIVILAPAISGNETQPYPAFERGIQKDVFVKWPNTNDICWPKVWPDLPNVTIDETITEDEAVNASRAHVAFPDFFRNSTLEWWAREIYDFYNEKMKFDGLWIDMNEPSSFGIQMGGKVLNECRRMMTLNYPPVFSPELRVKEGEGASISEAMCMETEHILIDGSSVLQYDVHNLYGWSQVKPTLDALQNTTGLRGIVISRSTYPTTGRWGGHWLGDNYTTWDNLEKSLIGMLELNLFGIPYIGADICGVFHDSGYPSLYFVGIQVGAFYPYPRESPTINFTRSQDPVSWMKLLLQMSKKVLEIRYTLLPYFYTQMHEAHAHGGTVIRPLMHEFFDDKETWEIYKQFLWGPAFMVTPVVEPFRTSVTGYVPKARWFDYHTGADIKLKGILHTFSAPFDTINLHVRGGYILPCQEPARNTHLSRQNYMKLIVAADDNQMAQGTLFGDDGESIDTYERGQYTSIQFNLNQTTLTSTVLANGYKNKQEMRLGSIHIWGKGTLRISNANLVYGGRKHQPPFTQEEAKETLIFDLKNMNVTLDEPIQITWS
Lactase/phlorizin hydrolase, sequence (Q02401 868-1928 limits assumed): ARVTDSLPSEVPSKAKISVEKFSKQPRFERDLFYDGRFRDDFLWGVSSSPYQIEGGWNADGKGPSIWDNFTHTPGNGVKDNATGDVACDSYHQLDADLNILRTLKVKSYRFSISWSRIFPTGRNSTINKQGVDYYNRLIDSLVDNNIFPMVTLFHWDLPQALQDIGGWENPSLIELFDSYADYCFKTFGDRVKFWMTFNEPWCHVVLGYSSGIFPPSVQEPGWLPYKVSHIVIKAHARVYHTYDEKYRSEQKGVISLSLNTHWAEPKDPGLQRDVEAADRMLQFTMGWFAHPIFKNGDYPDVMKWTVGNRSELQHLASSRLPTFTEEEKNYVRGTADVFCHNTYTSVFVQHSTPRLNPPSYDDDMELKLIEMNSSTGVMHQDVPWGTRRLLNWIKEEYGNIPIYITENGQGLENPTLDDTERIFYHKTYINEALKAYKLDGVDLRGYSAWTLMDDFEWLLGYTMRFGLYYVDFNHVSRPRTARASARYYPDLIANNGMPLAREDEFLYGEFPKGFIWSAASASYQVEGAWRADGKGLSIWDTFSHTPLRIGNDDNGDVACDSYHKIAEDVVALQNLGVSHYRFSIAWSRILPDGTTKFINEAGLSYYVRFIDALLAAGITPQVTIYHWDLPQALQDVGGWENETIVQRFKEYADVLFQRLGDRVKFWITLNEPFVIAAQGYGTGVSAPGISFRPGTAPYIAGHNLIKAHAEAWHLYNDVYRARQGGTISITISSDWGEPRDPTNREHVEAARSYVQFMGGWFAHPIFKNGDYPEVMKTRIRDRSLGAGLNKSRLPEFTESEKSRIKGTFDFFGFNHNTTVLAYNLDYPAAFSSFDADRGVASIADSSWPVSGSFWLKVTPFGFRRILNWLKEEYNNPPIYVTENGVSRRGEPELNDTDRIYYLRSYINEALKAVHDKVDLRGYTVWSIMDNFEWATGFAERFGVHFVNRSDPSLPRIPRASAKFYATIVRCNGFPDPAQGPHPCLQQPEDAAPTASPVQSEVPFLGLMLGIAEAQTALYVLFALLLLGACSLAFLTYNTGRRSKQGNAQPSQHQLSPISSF

For the molecule `OC[C@H]1NC[C@H](O)[C@@H](O)[C@@H]1O` [DUVOGLUSTAT], the Ki – broadly, a dissociation constant, usually derived from enzyme kinetics or from competition with a known ligand – at Alpha-mannosidase 2 [1] is less than 50 µM. For the same molecule, the IC50 (as a rule, the midpoint of a concentration-inhibition curve) on Alpha-mannosidase 2 [2] is less than 50 µM; in test [3], 0.4 µM. Besides, the EC50 in the test on MOLT-4 and in the test with MT4 was greater than 100 µg/mL throughout.

In the case of `OC[C@H]1NC[C@@H](O)[C@@H]1O`, the Ki was determined as 35 µM at Alpha-mannosidase 2 [1] and 9.7 µM in test [5]. The IC50 against Alpha-mannosidase 2 [2] was 46 µM; in test [4], 20 µM; in test [3], 130 µM; in [6] it was less than 50 µM; in [7], 260 µM; at Trehalase, 25 µM. The EC50 in the test with MOLT-4 and with MT4 was greater than 100 µg/mL throughout.

With `CN1[C@H](CO)[C@@H](O)[C@H](O)[C@H]1CO`, the IC50 against Mannosidase 2, alpha B1 is less than 50 µM; on Alpha-mannosidase 2C1 it was 190 µM; at Alpha-mannosidase 2 [2], less than 50 µM; in test [4] it was less than 50 µM; in [3], 470 µM; in [6], less than 50 µM. For the same molecule, the IC50 in test [8] is less than 50 µM; in test [7], less than 50 µM; in [9] it was 620 µM. Further, the EC50 with MOLT-4 and in the test with MT4 was greater than 100 µg/mL each time.

With `CCCCN1[C@H](CO)[C@@H](O)[C@H](O)[C@H]1CO`, the IC50 against Mannosidase 2, alpha B1 was less than 50 µM; at Alpha-mannosidase 2C1 it was 850 µM; against Alpha-mannosidase 2 [2], less than 50 µM; in test [4], less than 50 µM; in test [3], less than 50 µM; in test [6] it was less than 50 µM. Further, the IC50 in test [8], in [7] and in test [9] was less than 50 µM throughout. In addition, the EC50 in the test with MOLT-4 and with MT4 was greater than 100 µg/mL throughout.

For `OC[C@H]1N[C@H](CO)[C@@H](O)[C@@H]1O`, the IC50 was less than 50 µM against Mannosidase 2, alpha B1; 260 µM on Alpha-mannosidase 2C1; less than 50 µM in test [4]; 91 µM in [8]; 44 µM in test [9]. Further, the EC50 with MOLT-4 and in the test with MT4 was greater than 100 µg/mL throughout.
